Key:
[1] = Biodistribution 4 h p.i. in A431-CCK2R/A431-mock xenografted BALB/c nude mice; type: in vivo; conditions: female, BALB/c nude, mouse, in vivo, iv, 20 pmol, total radioactivity
Description: (§1) Then, after 7–11 days, when visible tumor xenografts were formed, groups of 5 mice were injected intravenously via a lateral tail vein with ~0.5 MBq of radiolabeled peptide, corresponding to 20 pmol of peptide, in a total volume of ~150 µL in PBS/0.5% BSA. Using an additional mouse per group, a blocking study was performed by co-injecting a 1000-fold molar excess of the respective peptide analog (20 nmol) together with the radiolabeled peptide. For quantification, a 1:1, 1:10 and 1:50 standard was prepared using aliquots of the injection solution mixed with PBS/0.5% BSA. Mice were euthanized by cervical dislocation 4 h after injection. Subsequently, a blood sample was collected, and different tissues were dissected. All samples, as well as the rest of the body were weighed, and the activity measured in the γ-counter together with the standard. Results were expressed as percentage of injected activity per gram of tissue (%IA/g).

[2] = test system: A431-CCK2R/A431-mock xenografted BALB/c nude mice; assay: as above; type: in vivo; conditions: mouse, in vivo
Description: as §1

in vivo = assay: in vivo; parameters: species or system mice; conditions: female, BALB/c nude, mouse, iv, 20 pmol, total radioactivity
Text: (§2) Based on these preliminary studies, [^177Lu]Lu-2 was selected for further biodistribution studies evaluating the tumor uptake and tissue distribution for up to 7 days after injection. This study was approved by the Nijmegen Medical Center animal ethics committee (RUDEC) and the Dutch animal ethics committee (CCD) of the Radboud University (2020–0007-020). Female BALB/c nude mice were inoculated with A431-CCK2R cells at an age of 8–10 weeks (n = 20). When tumor xenografts were formed, mice were injected intravenously via a lateral tail vein with ~1 MBq of [^177Lu]Lu-2, corresponding to 20 pmol of peptide, in a total volume of 200 µL in PBS/0.5% BSA. For quantification, a 1% standard was used. At different time points of 1 h, 24 h, 3 days, and 7 days after injecton, animals were euthanized by CO2/O2-asphyxiation and a blood sample was immediately drawn, and tissues of interest (spleen, pancreas, stomach, intestine, kidneys, liver, heart, lung, muscle, femur, A431-CCK2R tumor, and A431-mock tumor) were dissected. All collected samples were weighed and measured in the γ-counter together with the standard. Results were expressed as percentage of injected activity per gram of tissue (%IA/g), and tumor-to-organ activity ratios were calculated for selected tissues. For dose-limiting organs, kidneys and stomach, dosimetry estimates were calculated using Olinda-EXM (version 2.2, Vanderbilt University) and standard weights for humans (male and female). For this purpose, the % IA/g determined in mice was extrapolated to humans using the following equation: % IA per organ in humans=[%IA/gin mice×mass of mice (kg)]×(mass of human organ (g)/total body mass of human (kg))

[3] = test system: A431-CCK2R xenografted BALB/c nude mice; assay: in vivo; conditions: mouse
Text: as §2

human serum proteins = assay: Protein binding in human serum by Sephadex G-50 size-exclusion chromatography; type: in vitro ADME
Description: The stability studies with the ^177Lu-labeled peptide analogs were carried out at a concentration of 0.5 nmol peptide/mL in fresh human serum (n = 2) for up to 24 h. A mixture of 0.05 nmol/mL of the radiolabeled peptides in PBS and octanol (1/1, v/v) was used to evaluate the octanol/PBS distribution coefficient (logD7.4; n = 8). To determine the protein binding in human serum by Sephadex G-50 size-exclusion chromatography (GE Healthcare Illustra, Little Chalfont, UK), a 25 µL serum sample was used for different time points after incubation. All steps were performed according to previously published protocols.

[4] = parameters: species or system human
Text: as §2, with “At different time points of 1 h, 24 h, 3 days, and 7 days after injecton, animals were euthanized by CO2/O2-asphyxiation and a blood sample was immediately drawn, and tissues of interest (spleen, pancreas, stomach, intestine, kidneys, liver, heart, lung, muscle, femur, A431-CCK2R tumor, and A431-mock tumor) were dissected.” left out, “(kg)) […]” for “(kg))”

[5] = uptake in A431-CCK2R xenografts
[6] = female, BALB/c nude, iv, 20 pmol, 72 h

CCCC[C@@H](C(=O)N[C@@H](CC(=O)O)C(=O)N[C@@H](Cc1cccc2ccccc12)C(N)=O)N(C)C(=O)[C@H](Cc1c[nH]c2ccccc12)NC(=O)CCNC(=O)CC(O)CNC(=O)CC(O)CNC(=O)CN1CCN(CC(=O)O)CCN(CC(=O)O)CCN(CC(=O)O)CC1 (stereo partly shown) [[^177Lu]Lu-2, metal not drawn]
tissue to tissue ratio at 4 h [1]: 17
tissue uptake at 4 h [1, 5]: 32.1 ± 4.05 %ID/g
tissue uptake at 4 h ([1]; uptake in A431-mock xenografts): 0.22 ± 0.06 %ID/g
tissue uptake at 4 h ([1]; uptake in blood): 0.03 ± 0.01 %ID/g
tissue uptake at 4 h ([1]; uptake in femur): 0.22 ± 0.15 %ID/g
tissue uptake at 4 h ([1]; uptake in heart): 0.07 ± 0.02 %ID/g
tissue uptake at 4 h ([1]; uptake in intestine): 0.6 ± 0.12 %ID/g
tissue uptake at 4 h ([1]; uptake in kidneys): 1.96 ± 0.29 %ID/g
tissue uptake at 4 h ([1]; uptake in liver): 1.43 ± 0.18 %ID/g
tissue uptake at 4 h ([1]; uptake in lung): 0.22 ± 0.06 %ID/g
tissue uptake at 4 h ([1]; uptake in muscle): 0.06 ± 0.03 %ID/g
tissue uptake at 4 h ([1]; uptake in pancreas): 0.72 ± 0.14 %ID/g
tissue uptake at 4 h ([1]; uptake in spleen): 0.96 ± 0.3 %ID/g
tissue uptake at 4 h ([1]; uptake in stomach): 4.3 ± 0.95 %ID/g
improvement in tumor-to-kidney ratio versus [177Lu]Lu-DOTA-MGS5 [2]: more than 2 fold
tissue to tissue ratio at 1 h (in vivo; Tumor-to-blood ratio): 38.9
tissue to tissue ratio at 24 h (in vivo; Tumor-to-blood ratio): 3240
tissue to tissue ratio at 72 h (in vivo; Tumor-to-blood ratio): 4860
tissue to tissue ratio at 168 h (in vivo; Tumor-to-blood ratio): 241
tissue to tissue ratio at 1 h (in vivo; Tumor-to-kidney ratio): 19.8
tissue to tissue ratio at 24 h (in vivo; Tumor-to-kidney ratio): 25.5
tissue to tissue ratio at 72 h (in vivo; Tumor-to-kidney ratio): ~17
tissue to tissue ratio at 168 h (in vivo; Tumor-to-kidney ratio): 4
tissue to tissue ratio at 1 h (in vivo; Tumor-to-stomach ratio): 10.4
tissue to tissue ratio at 24 h (in vivo; Tumor-to-stomach ratio): 9.2
tissue to tissue ratio at 72 h (in vivo; Tumor-to-stomach ratio): ~6
tissue to tissue ratio at 168 h (in vivo; Tumor-to-stomach ratio): 1.4
tissue uptake at 1 h (in vivo; [5]): 56.3 ± 9.14 %ID/g
tissue uptake at 24 h (in vivo; [5]): 33.6 ± 2.95 %ID/g
tissue uptake at 72 h (in vivo; [5]): 12.5 ± 0.96 %ID/g
tissue uptake at 168 h (in vivo; [5]): 1.23 ± 0.53 %ID/g
tissue uptake at 1 h (in vivo; uptake in blood): 1.45 ± 0.3 %ID/g
tissue uptake at 168 h (in vivo; uptake in blood): 0.01 %ID/g
tissue uptake at 1 h (in vivo; uptake in femur): 0.23 ± 0.05 %ID/g
tissue uptake at 24 h (in vivo; uptake in femur): 0.05 ± 0.01 %ID/g
tissue uptake at 72 h (in vivo; uptake in femur): 0.03 ± 0.01 %ID/g
tissue uptake at 168 h (in vivo; uptake in femur): 0.04 ± 0.02 %ID/g
tissue uptake at 1 h (in vivo; uptake in heart): 0.62 ± 0.12 %ID/g
tissue uptake at 24 h (in vivo; uptake in heart): 0.05 ± 0.01 %ID/g
tissue uptake at 72 h (in vivo; uptake in heart): 0.02 %ID/g
tissue uptake at 168 h (in vivo; uptake in heart): 0.02 %ID/g
tissue uptake at 1 h (in vivo; uptake in intestine): 1 ± 0.34 %ID/g
tissue uptake at 24 h (in vivo; uptake in intestine): 0.16 ± 0.02 %ID/g
tissue uptake at 72 h (in vivo; uptake in intestine): 0.08 %ID/g
tissue uptake at 168 h (in vivo; uptake in intestine): 0.03 %ID/g
tissue uptake at 1 h (in vivo; uptake in kidneys): 2.84 ± 0.42 %ID/g
tissue uptake at 24 h (in vivo; uptake in kidneys): 1.32 ± 0.23 %ID/g
tissue uptake at 72 h (in vivo; uptake in kidneys): 0.72 ± 0.1 %ID/g
tissue uptake at 1 h (in vivo; uptake in liver): 0.95 ± 0.12 %ID/g
tissue uptake at 24 h (in vivo; uptake in liver): 0.38 ± 0.08 %ID/g
tissue uptake at 72 h (in vivo; uptake in liver): 0.18 ± 0.01 %ID/g
tissue uptake at 168 h (in vivo; uptake in liver): 0.06 ± 0.01 %ID/g
tissue uptake at 1 h (in vivo; uptake in lung): 4.33 ± 0.87 %ID/g
tissue uptake at 24 h (in vivo; uptake in lung): 0.09 ± 0.02 %ID/g
tissue uptake at 72 h (in vivo; uptake in lung): 0.06 ± 0.01 %ID/g
tissue uptake at 168 h (in vivo; uptake in lung): 0.02 ± 0.01 %ID/g
tissue uptake at 1 h (in vivo; uptake in muscle): 0.22 ± 0.05 %ID/g
tissue uptake at 24 h (in vivo; uptake in muscle): 0.03 %ID/g
tissue uptake at 72 h (in vivo; uptake in muscle): 0.01 %ID/g
tissue uptake at 168 h (in vivo; uptake in muscle): 0.01 ± 0.01 %ID/g
tissue uptake at 1 h (in vivo; uptake in pancreas): 0.85 ± 0.14 %ID/g
tissue uptake at 24 h (in vivo; uptake in pancreas): 0.41 ± 0.08 %ID/g
tissue uptake at 72 h (in vivo; uptake in pancreas): 0.28 ± 0.04 %ID/g
tissue uptake at 168 h (in vivo; uptake in pancreas): 0.16 ± 0.04 %ID/g
tissue uptake at 1 h (in vivo; uptake in spleen): 0.54 ± 0.08 %ID/g
tissue uptake at 24 h (in vivo; uptake in spleen): 0.19 ± 0.03 %ID/g
tissue uptake at 72 h (in vivo; uptake in spleen): 0.13 ± 0.02 %ID/g
tissue uptake at 168 h (in vivo; uptake in spleen): 0.09 ± 0.04 %ID/g
tissue uptake at 1 h (in vivo; uptake in stomach): 5.43 ± 1.05 %ID/g
tissue uptake at 24 h (in vivo; uptake in stomach): 3.66 ± 0.38 %ID/g
tissue uptake at 72 h (in vivo; uptake in stomach): 2.28 ± 0.33 %ID/g
tissue uptake at 168 h (in vivo; uptake in stomach): 0.88 ± 0.12 %ID/g
uptake in A431-CCK2R xenografts ([3]; female, BALB/c nude, iv, 20 pmol, 1 h): ~ 56 % IA/g
Tumor-to-kidney ratio [3, 6]: 17.3
Tumor-to-stomach ratio [3, 6]: 5.5
uptake in A431-CCK2R xenografts [3, 6]: ~ 13 % IA/g
uptake in kidneys [3, 6]: below 1 % IA/g
decrease of kidney uptake after 24 h versus 1 h p.i. [3]: ~ 54%
drop of uptake in A431-CCK2R xenografts after 24 h versus 1 h p.i. [3]: ~ 40%
improvement in tumor uptake in comparison with [177Lu]Lu-PP-F11N [3]: 4 fold
reduction of stomach uptake at 24 h p.i. versus 1 h p.i. [3]: ~ 33%
change in binding to human serum proteins compared to [177Lu]Lu-DOTA-MGS5 (human serum proteins): 2-fold decrease
decrease in protein binding compared to [177Lu]Lu-DOTA-MGS5 (human serum proteins; human, serum): ~ 50%
cumulative absorbed radiation dose, kidneys [4]: < 5 Gy
cumulative absorbed radiation dose, stomach [4]: < 10 Gy
